Measurements reported in patent EP4129284B1, “SERTACONAZOL FOR PROVIDING A SPORISTATIC AND/OR SPORICIDAL EFFECT” (Dr. Pfleger Arzneimittel GmbH, priority 2021, dated 2023).

Columns and labels:
Type in all cases: cell-based, human
[1] = test system: IL-6
Description: (§1) Additionally, the influence on the cell viability and the release of lactate dehydrogenase (LDH) was examined over the incubation time. Disruptions of the cell membranes can be measured by the release of the cytosolic enzyme LDH and be evaluated as a marker for cellular necrosis. As the biocompatibility of the material is determined by further cellular and molecular factors, the analysis of the cellular interleukin release allows the conclusion on e.g. pro-inflammatory effects of the substances, which would not be possible to be detected by sole cytotoxicity. Such interleukins are interleukins 1α, 6 or 8, which are involved in coordinating the cellular proliferation, cell migration and possible inflammatory processes. Such a method is described in, for example, Wiegand C, Hipler UC. Evaluation of biocompatibility and cytotoxicity using keratinocyte and fibroblast cultures. Skin Pharmacol Physiol 2009; 22:74-82; Wiegand C, Winter D, Hipler UC. Molecular-weight-dependent toxic effects of chitosans on the human keratinocyte cell line HaCaT. Skin Pharmacol Physiol. 2010;23(3):164-70.
(§2) The spore suspensions and the solutions of sertaconazol, ciclopiroxolamin and terbinafin were prepared as in Example 1, wherein the respective test concentrations were obtained by diluting these solutions in ultrapure water (WFI; Fresenius Kabi) instead of SGB (Merck). Full skin models were produced as previously described [Reddersen K, Wiegand C, Elsner P, Hipler UC. Three-dimensional human skin model infected with Staphylococcus aureus as a tool for evaluation of bioactivity and biocompatibility of antiseptics. Int J Antimicrob Agents. 2019; 54(3):283-291; Wiegand C, Fink S, Beier O, Horn K, Pfuch A, Schimanski A, Grünler B, Hipler UC, Elsner P. Dose- and Time-Dependent Cellular Effects of Cold Atmospheric Pressure Plasma Evaluated in 3D Skin Models. Skin Pharmacol Physiol. 2016;29(5):257-265].Particularly, normal human dermal fibroblasts (NHDF; Lot 1060702.1, Promocell) and normal human epidermal keratinocytes (NHEK; Lot 9100102, Promocell) were used. Fibroblasts were cultivated in Dulbecco's modified eagle medium (DMEM; Lot MC09049P, Amimed), with 2% foetal calf serum (Lot P160509; PAN), 5 ng/mL hFGF (Lot 0329586; novoprotein) and 5 µg/ml Insulin (Lot H07443P, AMIMED) at 37°C and a 5% CO2 atmosphere. Keratinocytes were cultivated in keratinocyte medium (KBM, Lot 446M063, Promocell) at 37°C and a 5% CO2 atmosphere. The cultivation was performed over 7 days in 75 cm^2 cell culture flasks (Greiner Bio-One). The cells were subsequently detached with Trypsin-EDTA (Lot 2091326; Gibco) and dissolved in the respective medium. For producing the dermis equivalent, fibroblasts were cultivated in 12-well inserts (Greiner bio-one) with DMEM (Lot MC09049P, Amimed) + 10% foetal calf serum (Lot P160509, PAN) + 1% Gentamycin (Lot 2027100, Gibco) + 150 µg/ml ascorbic acid (Lot BCBS1081V, Sigma) for 3 weeks at […] and 5 % CO2. The medium was changed all 2-3 days. Before seeding the keratinocytes for producing the […], the medium surrounding the insert was completely removed and the dermis upper layer was coated with fibronectin (50 µg/mL; Lot 435P078, Promocell). After 30 min of incubation of the dermis equivalent with fibronectin, the seeding of the keratinocytes was performed with 2 × 10^5 cells / insert in KBM (Lot 446M063, Promocell) + 5% FKS (Lot P160509, PAN) + 1% Gentamycin (Lot 2027100, Gibco). Subsequently, the skin models were incubated for 45 min in the incubator before the models were flooded with KBM + 5% FKS + 1% Gentamycin. The skin models were cultivated for 7 days by submersion in the medium with decreasing foetal calf serum concentration (5 %, 2 %, 0 %). The medium was changed all 2-3 days. After the cultivation by submersion, the skin models were further cultivated for 12 days at the air-medium interface (airlift cultivation). […]

[2] = test system: IL-8
Description: as §1, §2

[3] = test system: IL-1α
Description: as §1, §2

| Structure (SMILES) | release of IL-6 [1] | release of IL-8 [2] | secretion of IL-1α [3] |
| --- | --- | --- | --- |
| Clc1ccc(C(Cn2ccnc2)OCc2csc3c(Cl)cccc23)c(Cl)c1 (stereo not shown) [Sertaconazol, sertaconazol] | does not induce the release | does not induce the release | – |
| CN(C/C=C/C#CC(C)(C)C)Cc1cccc2ccccc12 [Terbinafin, terbinafin] | – | – | no significant secretion |
| Cc1cc(C2CCCCC2)n(O)c(=O)c1 [Ciclopiroxolamin, ciclopiroxolamin] | – | – | no significant secretion |
